This is an account of results in patent US20230242582A1, “NOVEL ALPHA-HELICAL DOUBLE-SIDED CELL PENETRATING PEPTIDE AND USE THEREOF” (CAMP THERAPEUTICS INC., priority 2020, published 2023).

Positions of bridges follow the written chain, without caps; N, C: chain ends. Non-standard residues stand in square brackets, D forms with d. Residues, ends and D or L forms follow the SMILES beside them. Chains are numbered I, II in the order given. tBuAla = CC(C)(C)C[C@H](N)C(=O)O; hCys = N[C@@H](CCS)C(=O)O

For data set [1], the system named is HeLa cells. The data set is described as follows: Cytotoxicity of dimeric peptides, WST-1 assay. It counts as cell-based, human. Particulars: for ratio: IC50 relative to LK-3, HeLa cells. The procedure:
Cytotoxicity was identified using WST-1 assay by treating HeLa cells with peptides in a 96-well plate (1×10^4 cells/well) for 24 hours.
Specifically, HeLa cells were cultured in DMEM at a condition of 37° C. with 5% CO2. The cells were respectively cultured in a cell culture plate, and then removed with trypsin. The cells were seeded at 1×10^4 cells per well in a 96-well plate. After 24 hours, the peptide was added to the media, and culture was performed again at a condition of 37° C. with 5% CO2 for 24 hours. 10 uL of WST-1 reagent was added per well, and reaction was allowed to proceed for 30 minutes at a condition of 37° C. with 5% CO2. Then, UV absorbance was measured at 450/700 nm with a 96-well plate reader.
On the technique in general: Tetrazolium dyes change colour on reduction, which living cells bring about.

Data set [2] has as its system HeLa cells. Put plainly: Cell-penetrating ability of fluorescently labeled dimeric peptides, flow cytometry. The data set is classed as cell-based, human. Particulars: for ratio of cell-penetrating ability to cytotoxicity (IC50^−1): at 62.5 nM, FIG. 6A. How it is done:
During preparation of CPPs in dimeric form shown in Tables 1 to 3, one monomer thereof was prepared in a form where 5-TAMRA fluorescence was attached to the N-terminus, instead of acetyl. A monomer with acetyl and a monomer with 5-TAMRA fluorescence were mixed in a molar ratio of 1:1, and subjected to an oxidation condition in air to produce a dimeric form in which only one fluorescence was labeled per dimer molecule. Then, cell-penetrating ability of each dimer was identified. Each fluorescently labeled peptide was used to treat HeLa cells (5×10^4 cells/well), which are human-derived cells, and a ratio of the number of cells with fluorescence to the total number of cells was obtained through flow cytometry.
FIGS. 4B to 4D illustrate results obtained by treating cells with respective dimers at the same concentration (62.5 nM), measuring fluorescence intensity of the cells by flow cytometry, and relatively comparing the fluorescence intensity.
Based on cell-penetrating ability and cytotoxicity of the dimeric peptides of the present disclosure, correlation therebetween was identified. Cytotoxicity (IC50^−1) and cell-penetrating ability of the respective peptides were identified at 62.5 nM according to the methods described in Examples 5 and 6, and then graphically represented.
Background: Flow cytometry measures light scatter and fluorescence of single cells or particles in a stream.

For the molecule `CC[C@H](C)[C@H](NC(C)=O)C(=O)N[C@H]1CSSC[C@@H](C(=O)N[C@@H](CCCCN)C(N)=O)NC(=O)[C@H]([C@@H](C)CC)NC(=O)[C@H](CCCCN)NC(=O)[C@H](CCCCN)NC(=O)[C@H]([C@@H](C)CC)NC(=O)[C@H]([C@@H](C)CC)NC(=O)[C@H](CCCCN)NC(=O)[C@@H](NC(=O)[C@@H](NC(C)=O)[C@@H](C)CC)CSSC[C@@H](C(=O)N[C@@H](CCCCN)C(N)=O)NC(=O)[C@H]([C@@H](C)CC)NC(=O)[C@H](CCCCN)NC(=O)[C@H](CCCCN)NC(=O)[C@H]([C@@H](C)CC)NC(=O)[C@H]([C@@H](C)CC)NC(=O)[C@H](CCCCN)NC1=O` [diIK10] (HELM PEPTIDE1{[ac].I.C.K.I.I.K.K.I.C.K.[am]}|PEPTIDE2{[ac].I.C.K.I.I.K.K.I.C.K.[am]}$PEPTIDE1,PEPTIDE2,3:R3-10:R3|PEPTIDE1,PEPTIDE2,10:R3-3:R3$$$V2.0; bridges inferred), in data set [1], the ratio stood at 2.57.

Take `CC(=O)N[C@@H](CC(C)(C)C)C(=O)N[C@H]1CSSC[C@@H](C(=O)N[C@@H](CCCNC(=N)N)C(N)=O)NC(=O)[C@H](CC(C)(C)C)NC(=O)[C@H](CCCNC(=N)N)NC(=O)[C@H](CCCNC(=N)N)NC(=O)[C@H](CC(C)(C)C)NC(=O)[C@H](CC(C)(C)C)NC(=O)[C@H](CCCNC(=N)N)NC(=O)[C@@H](NC(=O)[C@H](CC(C)(C)C)NC(C)=O)CSSC[C@@H](C(=O)N[C@@H](CCCNC(=N)N)C(N)=O)NC(=O)[C@H](CC(C)(C)C)NC(=O)[C@H](CCCNC(=N)N)NC(=O)[C@H](CCCNC(=N)N)NC(=O)[C@H](CC(C)(C)C)NC(=O)[C@H](CC(C)(C)C)NC(=O)[C@H](CCCNC(=N)N)NC1=O` [diL*R10] (I: Ac-[tBuAla]CR[tBuAla][tBuAla]RR[tBuAla]CR-NH2 / II: Ac-[tBuAla]CR[tBuAla][tBuAla]RR[tBuAla]CR-NH2; disulfide I:2-II:9, I:9-II:2 (inferred)): the ratio in data set [1] is 3.11.

`CC(=O)N[C@@H](Cc1ccccc1)C(=O)N[C@H]1CSSC[C@@H](C(=O)N[C@@H](CCCNC(=N)N)C(N)=O)NC(=O)[C@H](Cc2ccccc2)NC(=O)[C@H](CCCNC(=N)N)NC(=O)[C@H](CCCNC(=N)N)NC(=O)[C@H](Cc2ccccc2)NC(=O)[C@H](Cc2ccccc2)NC(=O)[C@H](CCCNC(=N)N)NC(=O)[C@@H](NC(=O)[C@H](Cc2ccccc2)NC(C)=O)CSSC[C@@H](C(=O)N[C@@H](CCCNC(=N)N)C(N)=O)NC(=O)[C@H](Cc2ccccc2)NC(=O)[C@H](CCCNC(=N)N)NC(=O)[C@H](CCCNC(=N)N)NC(=O)[C@H](Cc2ccccc2)NC(=O)[C@H](Cc2ccccc2)NC(=O)[C@H](CCCNC(=N)N)NC1=O` [diFR10] (HELM PEPTIDE1{[ac].F.C.R.F.F.R.R.F.C.R.[am]}|PEPTIDE2{[ac].F.C.R.F.F.R.R.F.C.R.[am]}$PEPTIDE1,PEPTIDE2,3:R3-10:R3|PEPTIDE1,PEPTIDE2,10:R3-3:R3$$$V2.0; bridges inferred): the ratio in data set [1] is 4.10. For the same molecule, the “ratio of cell-penetrating ability to cytotoxicity (IC50^−1)” value (shortened to “ratio of cell-penetrating ability”) in data set [2] is “low toxicity as compared with cell-penetrating ability”.

In the case of `CC(=O)N[C@@H](CC(C)(C)C)C(=O)N[C@H]1CSSC[C@@H](C(=O)N[C@@H](CCCNC(=N)N)C(N)=O)NC(=O)[C@H](CC(C)(C)C)NC(=O)[C@H](CCCNC(=N)N)NC(=O)[C@H](CCCNC(=N)N)NC(=O)[C@H](CC(C)(C)C)NC(=O)[C@H](CC(C)(C)C)NC(=O)[C@H](CCCNC(=N)N)NC(=O)[C@@H](NC(=O)[C@H](CC(C)(C)C)NC(C)=O)CSSC[C@@H](C(=O)N[C@@H](CCCNC(=N)N)C(N)=O)NC(=O)[C@H](CC(C)(C)C)NC(=O)[C@H](CCCNC(=N)N)NC(=O)[C@H](CCCNC(=N)N)NC(=O)[C@H](CC(C)(C)C)NC(=O)[C@H](CC(C)(C)C)NC(=O)[C@H](CCCNC(=N)N)NC1=O` [diNpgR10] (I: Ac-[tBuAla]CR[tBuAla][tBuAla]RR[tBuAla]CR-NH2 / II: Ac-[tBuAla]CR[tBuAla][tBuAla]RR[tBuAla]CR-NH2; disulfide I:2-II:9, I:9-II:2 (inferred)), the “ratio of cell-penetrating ability” value in data set [2] is listed as “low toxicity as compared with cell-penetrating ability”.

Take `CC[C@H](C)[C@H](NC(C)=O)C(=O)N[C@H]1CSSC[C@@H](C(=O)N[C@@H](CCCNC(=N)N)C(N)=O)NC(=O)[C@H]([C@@H](C)CC)NC(=O)[C@H](CCCNC(=N)N)NC(=O)[C@H](CCCNC(=N)N)NC(=O)[C@H]([C@@H](C)CC)NC(=O)[C@H]([C@@H](C)CC)NC(=O)[C@H](CCCNC(=N)N)NC(=O)[C@@H](NC(=O)[C@@H](NC(C)=O)[C@@H](C)CC)CSSC[C@@H](C(=O)N[C@@H](CCCNC(=N)N)C(N)=O)NC(=O)[C@H]([C@@H](C)CC)NC(=O)[C@H](CCCNC(=N)N)NC(=O)[C@H](CCCNC(=N)N)NC(=O)[C@H]([C@@H](C)CC)NC(=O)[C@H]([C@@H](C)CC)NC(=O)[C@H](CCCNC(=N)N)NC1=O` [diIR10] (HELM PEPTIDE1{[ac].I.C.R.I.I.R.R.I.C.R.[am]}|PEPTIDE2{[ac].I.C.R.I.I.R.R.I.C.R.[am]}$PEPTIDE1,PEPTIDE2,3:R3-10:R3|PEPTIDE1,PEPTIDE2,10:R3-3:R3$$$V2.0; bridges inferred): the ratio in data set [1] was found to be 3.24. Moreover, in data set [2], the “ratio of cell-penetrating ability” value is given as “low toxicity as compared with cell-penetrating ability”.

With `CC(=O)N[C@@H](CC(C)(C)C)C(=O)N[C@H]1CSSC[C@@H](C(=O)N[C@@H](CCCCN)C(N)=O)NC(=O)[C@H](CC(C)(C)C)NC(=O)[C@H](CCCCN)NC(=O)[C@H](CCCCN)NC(=O)[C@H](CC(C)(C)C)NC(=O)[C@H](CC(C)(C)C)NC(=O)[C@H](CCCCN)NC(=O)[C@@H](NC(=O)[C@H](CC(C)(C)C)NC(C)=O)CSSC[C@@H](C(=O)N[C@@H](CCCCN)C(N)=O)NC(=O)[C@H](CC(C)(C)C)NC(=O)[C@H](CCCCN)NC(=O)[C@H](CCCCN)NC(=O)[C@H](CC(C)(C)C)NC(=O)[C@H](CC(C)(C)C)NC(=O)[C@H](CCCCN)NC1=O` [diNpgK10] (I: Ac-[tBuAla]CK[tBuAla][tBuAla]KK[tBuAla]CK-NH2 / II: Ac-[tBuAla]CK[tBuAla][tBuAla]KK[tBuAla]CK-NH2; disulfide I:2-II:9, I:9-II:2 (inferred)), the “ratio of cell-penetrating ability” value in data set [2] is on record as “low toxicity as compared with cell-penetrating ability”.

Turning to “diLH10: dimer of monomer LH10, AC-LCHLLHHLCH-NH2 (SEQ ID NO 14) (Ac-LCHLLHHLCH-NH2; also: dimer of two monomers linked by interchain disulfide bonds)”, in data set [1] (even at 40 μM, data not shown), the toxicity result is listed as “no toxicity was observed”.

In the case of `CC(=O)N[C@@H](CC(C)(C)C)C(=O)N[C@H]1CSSC[C@@H](C(=O)N[C@@H](CCCCN)C(N)=O)NC(=O)[C@H](CC(C)(C)C)NC(=O)[C@H](CCCCN)NC(=O)[C@H](CCCCN)NC(=O)[C@H](CC(C)(C)C)NC(=O)[C@H](CC(C)(C)C)NC(=O)[C@H](CCCCN)NC(=O)[C@@H](NC(=O)[C@H](CC(C)(C)C)NC(C)=O)CSSC[C@@H](C(=O)N[C@@H](CCCCN)C(N)=O)NC(=O)[C@H](CC(C)(C)C)NC(=O)[C@H](CCCCN)NC(=O)[C@H](CCCCN)NC(=O)[C@H](CC(C)(C)C)NC(=O)[C@H](CC(C)(C)C)NC(=O)[C@H](CCCCN)NC1=O` [diL*K10] (I: Ac-[tBuAla]CK[tBuAla][tBuAla]KK[tBuAla]CK-NH2 / II: Ac-[tBuAla]CK[tBuAla][tBuAla]KK[tBuAla]CK-NH2; disulfide I:2-II:9, I:9-II:2 (inferred)), the ratio in data set [1] turned out to be 2.32.

For “diLR10^C9Hcy: dimer of monomer LR10^C9Hcy, Ac-LCRLLRRLHcyR-NH2 (SEQ ID NO 43) (Ac-LCRLLRRL[hCys]R-NH2; also: dimer linked by intermolecular disulfides)”, in data set [2] (HeLa cells, flow cytometry, FIG. 4), the cell-penetrating ability entry is listed as “best results”.

In the case of `CC(=O)N[C@@H](Cc1ccccc1)C(=O)N[C@H]1CSSC[C@@H](C(=O)N[C@@H](CCCCN)C(N)=O)NC(=O)[C@H](Cc2ccccc2)NC(=O)[C@H](CCCCN)NC(=O)[C@H](CCCCN)NC(=O)[C@H](Cc2ccccc2)NC(=O)[C@H](Cc2ccccc2)NC(=O)[C@H](CCCCN)NC(=O)[C@@H](NC(=O)[C@H](Cc2ccccc2)NC(C)=O)CSSC[C@@H](C(=O)N[C@@H](CCCCN)C(N)=O)NC(=O)[C@H](Cc2ccccc2)NC(=O)[C@H](CCCCN)NC(=O)[C@H](CCCCN)NC(=O)[C@H](Cc2ccccc2)NC(=O)[C@H](Cc2ccccc2)NC(=O)[C@H](CCCCN)NC1=O` [diFK10] (HELM PEPTIDE1{[ac].F.C.K.F.F.K.K.F.C.K.[am]}|PEPTIDE2{[ac].F.C.K.F.F.K.K.F.C.K.[am]}$PEPTIDE1,PEPTIDE2,3:R3-10:R3|PEPTIDE1,PEPTIDE2,10:R3-3:R3$$$V2.0; bridges inferred), the ratio in data set [1] is 2.11.
